Patent US20250241308A1, “COMPOSITIONS AND METHODS FOR CONTROLLING PESTS” (PYRONE SYSTEMS, INC., priority 2022, published 2025)
Marks after values point to notes of the source that are not given here.

Legend:
[1] = tested on: Aedes aegypti Puerto Rican strain (pyrethroid-resistant); assay: Topical application KD50 and LD50, pyrethroid-resistant strain
[2] = tested on: Aedes aegypti Orlando strain (pyrethroid-susceptible); assay: Topical application KD50 and LD50, pyrethroid-susceptible strain
[3] = tested on: pyrethroid-susceptible (Orlando) strain of Aedes aegypti female adult mosquitoes; assay: Spatial repellency, static air repellency chamber, Orlando strain; format: in vivo; conditions: for EC50 (spatial repellency): 1 hour after introducing treated filter papers
Procedure: Spatial repellency of pogostone was assessed on pyrethroid-susceptible (Orlando) and pyrethroid-resistant (Puerto Rico) strains of Aedes aegypti female adult mosquitoes. Repellency bioassays were performed using a static air repellency chamber, which has been described previously (Schultz, 2006; Peterson, 2018). Briefly, the repellency chamber consists of a clear glass cylinder 600 mm in length with an inner diameter of roughly 85 mm laying horizontally. One end of the cylinder is capped with an untreated 90-mm filter paper (Whatman No. 1) contained in a 90-mm inner diameter glass petri dish, and sealed with tape to remain closed. The other end is capped in the same manner, except the filter paper has been treated with 1 mL of a 0.5% (w/v) solution of a monoterpenoid ester in acetone, resulting in 78.6 μg/cm^2 of repellent on the filter paper. The solution was added to the filter paper evenly and at a rate such that the evaporation of acetone prevents loss of compound from dripping, and the acetone was allowed to evaporate at room temperature for a further 10 minutes before use for the short-term repellency assay, or for an additional five hours under open air in ambient conditions in the case of long-term repellency studies. Shortly after placing the filter papers on the end of the tube, twenty (not blood fed) female […] mosquitoes were anesthetized with carbon dioxide, and placed into the tube via a 20-mm hole halfway down the length of the tube, and the hole was sealed. This process is performed with as little disturbance to the air in the tube as possible. The distribution of mosquitoes between the treated and untreated sides was then noted at 15, 30, 60, 90, 120, and 150 minutes after placement into the tube. Repellency ratio of Orlando or Puerto Rico mosquitoes was recorded as a proportion of the number of mosquitoes on the treated side of the tube compared to the whole tube [number of treated side/total number throughout entire tube] at 1 hour after introducing the treated filter papers.

[4] = tested on: Aedes aegypti adult female mosquitoes; assay: LD50 of insecticides alone and in combination with sublethal pogostone; format: in vivo; conditions: for Synergism Ratio: LD50 of insecticide alone / LD50 of insecticide in combination with pogostone; for LD50: insecticide alone or with pogostone at sublethal dosage, pogostone effect corrected with Abbott's formula
From the text: The dashed line indicates sublethal dosage of pogostone used for synergist experiments in Example 2.
Synergism ratios are presented as the ratio of the LD50 of insecticide alone and the LD50 of insecticide applied in combination with pogostone. The insecticidal effect of pogostone alone is corrected for using Abbott's formula (Equation 1) in all treatments using pogostone.

[5] = tested on: house fly strain CAR21 (S); assay: Median lethal dose determination, house fly CAR21; format: in vivo
Procedure: (§1) 24-hour median lethal dose determinations of pogostone and permethrin were performed in three house fly strains and one stable fly strain. The KS17 resistant strain below is simultaneously resistant to organophosphates, carbamates, and synthetic pyrethroids.
(§2) 48-hour median lethal dose determinations of pogostone and permethrin were performed in three house fly strains. The KS17 resistant strain below is simultaneously resistant to organophosphates, carbamates, and synthetic pyrethroids.

[6] = tested on: house fly strain KS17 (R); assay: Median lethal dose determination, house fly KS17; format: in vivo; conditions: for LD50: KS17 (R); for RR (resistance ratio): KS17 (R) LD50 divided by susceptible strain LD50, NS = not significantly different
Procedure: as §1, §2

house fly strain WHF (R) = assay: Median lethal dose determination, house fly WHF; format: in vivo; conditions: for LD50: WHF (R); for RR (resistance ratio): WHF (R) LD50 divided by susceptible strain LD50
Procedure: as §1, §2

Stable flies (S) = assay: Median lethal dose determination, stable fly; format: in vivo; conditions: 24-hour
Procedure: as §1

[7] = tested on: pyrethroid-resistant (Puerto Rico) strain of Aedes aegypti female adult mosquitoes; assay: Spatial repellency, static air repellency chamber, Puerto Rico strain; format: in vivo
Procedure: Spatial repellency of pogostone was assessed on pyrethroid-susceptible (Orlando) and pyrethroid-resistant (Puerto Rico) strains of Aedes aegypti female adult mosquitoes. Repellency bioassays were performed using a static air repellency chamber, which has been described previously (Schultz, 2006; Peterson, 2018). Briefly, the repellency chamber consists of a clear glass cylinder 600 mm in length with an inner diameter of roughly 85 mm laying horizontally. One end of the cylinder is capped with an untreated 90-mm filter paper (Whatman No. 1) contained in a 90-mm inner diameter glass petri dish, and sealed with tape to remain closed. The other end is capped in the same manner, except the filter paper has been treated with 1 mL of a 0.5% (w/v) solution of a monoterpenoid ester in acetone, resulting in 78.6 μg/cm^2 of repellent on the filter paper. […] Repellency ratio of Orlando or Puerto Rico mosquitoes was recorded as a proportion of the number of mosquitoes on the treated side of the tube compared to the whole tube [number of treated side/total number throughout entire tube] at 1 hour after introducing the treated filter papers.

Q: For Clc1ccc(C(c2ccc(Cl)cc2)C(Cl)(Cl)Cl)cc1 [DDT], which “KD50” value [1] is on record?
A: 350 ng/mg

Q: And the “LD50” value [1]?
A: 530 ng/mg

Q: What about the “KD50” value [2] of the same molecule?
A: 9.5 ng/mg

Q: What about the “LD50” value [2] of the same molecule?
A: 9.6 ng/mg

Q: How did the “EC50 (spatial repellency)” value [3] turn out when CCN(CC)C(=O)c1cccc(C)c1 [DEET] was run?
A: approximately 10 μg/cm^2

Q: For CN/C(=N/CC1CCOC1)N[N+](=O)[O-] (stereo not shown) [Dinotefuran], which “Synergism Ratio” value [4] is on record?
A: 6.0*

Q: And the “LD50” value [4]?
A: 12.7 ng/mg

Q: For CC1(C)C(C=C(Cl)Cl)C1C(=O)OCc1cccc(Oc2ccccc2)c1 (stereo not shown) [Permethrin], which LD50 ([5]; 24-hour) is on record?
A: 15.4 ng/fly

Q: What about the LD50 ([5]; 48-hour) of the same molecule?
A: 14.5 ng/fly

Q: And the “Synergism Ratio” value [4]?
A: 2.6*

Q: And the “LD50” value [4]?
A: 0.37 ng/mg

Q: And the LD50 ([6]; 24-hour)?
A: >5000 ng/fly

Q: What about the “RR (resistance ratio)” value ([6]; 24-hour) of the same molecule?
A: 325.1

Q: What about the LD50 ([6]; 48-hour) of the same molecule?
A: >5,000 ng/fly

Q: And the “RR (resistance ratio)” value ([6]; 48-hour)?
A: 344.8

Q: And the LD50 (house fly strain WHF (R); 24-hour)?
A: 1,100 ng/fly

Q: And the “RR (resistance ratio)” value (house fly strain WHF (R); 24-hour)?
A: 71.5

Q: And the LD50 (house fly strain WHF (R); 48-hour)?
A: 894 ng/fly

Q: And the “RR (resistance ratio)” value (house fly strain WHF (R); 48-hour)?
A: 61.7

Q: What about the LD50 (Stable flies (S)) of the same molecule?
A: 1.81 ng/fly

Q: What does the source list for Cc1cc(O)c(C(=O)CCC(C)C)c(=O)o1 [pogostone]?
A: LD50 ([5]; 24-hour): 7,600 ng/fly; LD50 ([5]; 48-hour): 6,800 ng/fly; LD50 ([6]; 24-hour): 10,700 ng/fly; LD50 ([6]; 48-hour): 6,890 ng/fly; EC50 (spatial repellency) ([7]; 1 hour after introducing treated filter papers): 2.5 μg/cm^2; spatial repellency (in words) ([7]; FIG. 2): considerably repellent; LD50 (house fly strain WHF (R); 24-hour): 13,900 ng/fly; RR (resistance ratio) (house fly strain WHF (R); 24-hour): 1.8; LD50 (house fly strain WHF (R); 48-hour): 9,900 ng/fly; RR (resistance ratio) (house fly strain WHF (R); 48-hour): 1.5; EC50 (spatial repellency) [3]: 3.6 μg/cm^2; spatial repellency (in words) ([3]; FIG. 2): considerably repellent; KD50 [1]: 14 ng/mg; LD50 [1]: 70 ng/mg; KD50 [2]: 11 ng/mg; LD50 [2]: 96 ng/mg; LD50 (Stable flies (S)): 540 ng/fly
